Assay results from PubChem BioAssay (NCI).
Where “and” joins values, the source holds several entries; their conditions need not be identical. Identical values can stand only once.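 Cultured in 96-well plates, cells were exposed to test compound for 48 hours across five concentrations. Here, GI50 denotes the concentration required for 50% inhibition of growth. Definition used: TGI = concentration required for complete inhibition of growth.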

Experiments:
Experiment in all cases: growth of human tumour cells (NCI), 48 h
[1] = tested on: SNB-75 CNS
[2] = tested on: RXF 393 renal
[3] = tested on: A549 NSCLC
[4] = tested on: OVCAR-5 ovarian
[5] = tested on: IGROV1 ovarian
[6] = tested on: SNB-19 CNS
[7] = tested on: HCT-116 colon
[8] = tested on: A498 renal
[9] = tested on: RPMI-8226 leukemia
[10] = tested on: SK-OV-3 ovarian

Compound	GI50 [1] [µM]	TGI [1]	GI50 [2]	TGI [2] [µM]	GI50 [3]	TGI [3]	GI50 [4]	TGI [4]	GI50 [5]	TGI [5]	GI50 [6]	TGI [6]	GI50 [7] [µM]	TGI [7] [µM]	GI50 [8] [µM]	TGI [8]	GI50 [9]	TGI [9]	GI50 [10]	TGI [10]
CCSc1ncc(Br)c(Sc2nc(N)nc3nc[nH]c23)n1	1.57	14 µM	5.37 µM	> 100	21 µM	> 100 µM	5.83 µM	> 100 µM	2.7 µM	30 µM	> 100 µM	> 100 µM	2.86	> 100	10.1	> 100 µM	3.87 µM	> 100 µM	2.76 µM	48.9 µM
COc1ccc(C(=O)O/N=C2/CCCCC2CN(C)C)cc1 (stereo unspecified)	–	> 100 µM	–	> 100	–	> 100 µM	–	> 100 µM	–	> 100 µM	–	–	–	> 100	–	> 100 µM	–	> 100 µM	–	> 100 µM
COC(=O)[C@H](Cc1cn(C)cn1)NC(=O)[C@@H](NC(=O)Nc1cc(C(F)(F)F)cc(C(F)(F)F)c1)C(C)C	6.44	> 10 µM	1.96 µM	4.08	> 10 µM	> 10 µM	> 10 µM	> 10 µM	6.15 µM	> 10 µM	6.71 µM	> 10 µM	1.82	3.55	> 10	> 10 µM	3.03 µM	> 10 µM	> 10 µM	> 10 µM
O=C(CC1=Nc2nnc(-c3nnc4n3C(=O)C(CC(=O)C3CC3)=N4)n2C1=O)C1CC1	–	> 100 µM	–	> 100	–	> 100 µM	–	> 100 µM	–	> 100 µM	–	> 100 µM	–	> 100	–	> 100 µM	–	> 100 µM	–	> 100 µM
CCN1CCN(c2nc(NNC(=O)c3ccccc3)nc(N3CCN(C(c4ccccc4)c4ccccc4)CC3)n2)CC1	3.96	18.1 µM	2.56 µM	7.57	3.7 µM	20.2 µM	6.03 µM	21.4 µM	3.09 µM	12.8 µM	4.28 µM	17.8 µM	1.78	3.41	6.3	27.1 µM	1.65 µM	4.1 µM	5.93 µM	22.1 µM
Nc1nc(=S)c2[nH]cnc2[nH]1	–	> 86 µM and 45.8 µM and > 250 µM	0.395 µM and 0.474 µM and 0.984 µM	–	2.29 µM and 4.7 µM and 5.85 µM	> 57.7 µM and 105 µM and 85.1 µM	0.498 µM and 1.93 µM	> 100 µM and 46 µM and > 250 µM	3.23 µM and 6.02 µM	> 96.1 µM and 150 µM and 162 µM	39.2 µM and 89 µM and 48.6 µM	> 100 µM and 241 µM and > 250 µM	0.336	–	–	> 23.8 µM and 93.7 µM and 12.6 µM	0.255 µM and 1.3 µM and 0.488 µM	2.77 µM and 22.3 µM and 3 µM	0.293 µM and 0.784 µM	8.82 µM and 17.5 µM and > 86 µM
COC(=O)c1sc(=NC(=S)N2CCCCC2)sc1C(=O)OC	–	> 100 µM	–	> 100	–	–	–	–	–	> 100 µM	–	> 100 µM	–	> 100	–	> 100 µM	–	> 100 µM	–	> 100 µM
COc1cc(/C=C\c2cc(OC)c(OC)c(OC)c2)cc(NS(=O)(=O)c2ccc(Cl)cc2)c1OC	–	–	0.272 µM	1.24	0.716 µM	> 100 µM	0.726 µM	> 100 µM	0.904 µM	> 100 µM	0.745 µM	> 100 µM	0.469	> 100	0.179	0.832 µM	0.387 µM	33.2 µM	0.449 µM	> 100 µM
CN(C)c1ccc(O[Si](Oc2ccc(N(C)C)cc2)(Oc2ccc(N(C)C)cc2)Oc2ccc(N(C)C)cc2)cc1	–	> 100 µM	–	–	–	> 100 µM	–	> 100 µM	–	> 100 µM	–	> 100 µM	–	> 100	–	> 100 µM	–	> 100 µM	–	> 100 µM
N#CCC1(n2cc(-c3ncnc4[nH]ccc34)cn2)CN(C2CCN(C(=O)c3ccnc(C(F)(F)F)c3F)CC2)C1	25.7	> 100 µM	28.2 µM	> 100	> 100 µM	> 100 µM	> 100 µM	> 100 µM	> 100 µM	> 100 µM	> 100 µM	> 100 µM	–	–	29.1	> 100 µM	98.2 µM	> 100 µM	> 100 µM	> 100 µM
COC(=O)c1ccc2[nH]c(O)c(C(=Nc3ccc(N(C)C(=O)CN4CCN(C)CC4)cc3)c3ccccc3)c2c1	–	–	0.422 µM	1.69	1.46 µM	5.31 µM	2.63 µM	6.8 µM	0.297 µM	1.83 µM	2.95 µM	8.33 µM	0.343	3.06	1.91	5.39 µM	1.92 µM	8.34 µM	0.444 µM	5 µM
COc1cc(CCc2ccc(OC(C)=O)cc2)cc(OC)c1OC	–	> 100 µM	–	> 100	–	> 100 µM	–	> 100 µM	–	> 100 µM	–	> 100 µM	–	> 100	–	> 100 µM	–	> 100 µM	–	–
O=C(OC[C@@H]1CO1)c1cccc2c(=O)c3ccccc3[nH]c12	0.288	1.49 µM	0.207 µM	0.515	0.468 µM	5.68 µM	0.474 µM	4.17 µM	0.329 µM	1.83 µM	0.505 µM	5.51 µM	0.127	10.1	1.76	3.56 µM	0.33 µM	1.84 µM	–	–
Cc1ccnc(Nc2ccc([N+](=O)[O-])c(NCCN3CCOCC3)n2)c1	0.00243	20.1 µM	–	–	0.0141 µM	> 100 µM	0.074 µM	–	0.0389 µM and 0.0579 µM	42.4 µM	0.0312 µM	–	0.00663	–	0.00325	0.22 µM	0.0212 µM and 0.0269 µM	24.5 µM	0.00804 µM	64.7 µM
NNC(=O)N/N=C1\CN(c2ccc(Cl)cc2Cl)C(=O)C(=O)C1c1nc2ccccc2o1 (stereo unspecified)	–	> 100 µM	–	–	–	> 100 µM	–	> 100 µM	–	> 100 µM	–	> 100 µM	–	> 100	–	> 100 µM	–	> 100 µM	–	> 100 µM
N/C(=N\C(N)=N\c1nc2ccccc2s1)c1cnccn1	2.15	15.3 µM	1.93 µM	3.96	–	–	3.68 µM	> 100 µM	–	–	3.57 µM	41.6 µM	–	–	1.45	3.89 µM	3.2 µM	> 100 µM	1.84 µM	3.83 µM
